Laboratory results reported in patent US11603356B2, “Amorphous form of a complement component C5a receptor” (CHEMOCENTRYX, INC., priority 2019, dated 2023).
In brackets after ≈: the same amount, converted by molar mass. Read-outs that look alike come from different tables or passages of the source. One block for each compound: values may come before it.

Columns and labels:
[1] = Kinetic solubility in 0.1 N HCl, FaSSGF and FeSSIF at 37° C.; assay type: physicochemical
Protocol: The in vitro solubility of a crystalline form of Compound 1 and the amorphous form of Compound 1 was tested.
The amorphous form was prepared as described in Example 2, Method 1, and the crystalline form of Compound 1 was prepared as described in Example 1.
Crystalline and amorphous forms of Compound 1 were saturated in three different media: 0.1 N HCl solution, Fasted State Simulated Gastric Fluid (FaSSGF), and Fed State Simulated Intestinal Fluid (FeSSIF). The samples were shaken inside a 37° C. water bath at 40 rpm. The concentration of Compound 1 dissolved in these samples was measured by HPLC at four different time points (0.5, 1, 2 and 4 hours).

[2] = Solubility in IV formulation saline/PEG400/Tween80; assay type: physicochemical
Protocol: Intravenous (IV) formulations of a crystalline form of Compound 1 and the amorphous form of Compound 1 were prepared by contacting the amorphous of crystalline Compound 1 with saline/PEG400/Tween80 (88:10:1). The crystalline form of Compound 1 was prepared as described in Example 1, the amorphous form of Compound was prepared as described in Example 2, Method 1.

[3] = In vivo rat PK study, oral aqueous liquid suspension formulation
Protocol: An in vivo rat PK study was conducted to compare the PK profile and bioavailability of crystalline form against amorphous form of Compound 1 in an aqueous liquid suspension formulation, which contained 0.5% w/v Hydroxypropyl Cellulose (Klucel GF grade) and 0.5% w/v Poloxamer F-68 (BASF Kolliphor P188). Each animal was orally administrated 10 mg/kg of Compound 1 at 5 mL/kg dosing volume (a dosing concentration of 2 mg/mL).

[4] = Dynamic vapor sorption (DVS) of the amorphous form; assay type: physicochemical
Protocol: To evaluate the hygroscopicity and physical stability of the amorphous form of Compound 1 under different humidity, dynamic vapor sorption (DVS) data was collected at 25° C. after the sample was pre-equilibrated at 0% RH to remove unbounded water. DVS was measured using a VTI SGA-100 Vapor Sorption Analyzer. Sorption and desorption data was collected over a range from 5% to 95% RH at 10% RH increments under a nitrogen purge. The equilibrium criterion used for analysis was less than 0.0100% weight change in 5 minutes with a maximum equilibrium time of 3 hours.

[5] = Stability storage test (25° C./60% RH, 12 months; HPLC, KF, XRPD); assay type: physicochemical; conditions: for Specified Individual Related Substances (HPLC): RRT1.05
Protocol: A sample of amorphous form of Compound 1 was tested by different analytical methods and the data was reported in the “Time Zero” column (Table 3). These analytical methods included: HPLC and Karl Fisher (KF). The sample was placed in double Low-Density Polyethylene (LDPE) bags, sealed with a cable tie, then placed in a High-Density Polyethylene (HDPE) bottle with foil and heat-induction sealed, with 0.5 g desiccant between LDPE bags. The HDPE bottle was stored inside an environment chamber at 25° C. and 60% relative humidity (RH). After 12 months inside the environment chamber, the sample was tested again by the same analytical methods.

[6] = saline/PEG400/Tween80 (88:10:1), 0.5 Hr.
[7] = saline/PEG400/Tween80 (88:10:1), 1 Hr.
[8] = saline/PEG400/Tween80 (88:10:1), 2 Hr.
[9] = saline/PEG400/Tween80 (88:10:1), 4 Hr.
[10] = oral 10 mg/kg, suspension in 0.5% w/v Klucel GF and 0.5% w/v Poloxamer F-68, 10 mg/kg

CCX168 Solubility at 37° C. ([1]; 0.1N HCl (pH 1.06), 0.5 Hr.): ND (ND = Not Detected)
CCX168 Solubility at 37° C. ([1]; 0.1N HCl (pH 1.06), 1 Hr.): ND (ND = Not Detected)
CCX168 Solubility at 37° C. ([1]; 0.1N HCl (pH 1.06), 2 Hr.): ND (ND = Not Detected)
CCX168 Solubility at 37° C. ([1]; 0.1N HCl (pH 1.06), 4 Hr.): ND (ND = Not Detected)
CCX168 Solubility at 37° C. ([1]; FaSSGF (pH 1.64), 0.5 Hr.): ND (ND = Not Detected)
CCX168 Solubility at 37° C. ([1]; FaSSGF (pH 1.64), 1 Hr.): ND (ND = Not Detected)
solubility at 2 h ([1]; Fasted State Simulated Gastric Fluid (FaSSGF), 37 °C, pH 1.64, fassgf or other biorelevant, thermodynamic from solid, FaSSGF (pH 1.64), 2 Hr., read-out: CCX168 Solubility at 37° C.): < 3.1 µg/mL
solubility at 4 h ([1]; Fasted State Simulated Gastric Fluid (FaSSGF), 37 °C, pH 1.64, fassgf or other biorelevant, thermodynamic from solid, FaSSGF (pH 1.64), 4 Hr., read-out: CCX168 Solubility at 37° C.): < 3.1 µg/mL
CCX168 Solubility at 37° C. ([1]; FeSSIF (pH 4.90), 1 Hr.): ND (ND = Not Detected)
CCX168 Solubility at 37° C. ([1]; FeSSIF (pH 4.90), 2 Hr.): ND (ND = Not Detected)
CCX168 Solubility at 37° C. ([1]; FeSSIF (pH 4.90), 4 Hr.): ND (ND = Not Detected)
solubility at 0.5 h ([1]; Fed State Simulated Intestinal Fluid (FeSSIF), 37 °C, pH 4.9, fessif, thermodynamic from solid, FeSSIF (pH 4.90), 0.5 Hr., read-out: CCX168 Solubility at 37° C.): < 3.1 µg/mL
Solubility in IV Formulation [2, 6]: 15.2 µg/mL (≈ 26.1 µM)
Solubility in IV Formulation [2, 7]: 17.2 µg/mL (≈ 29.6 µM)
Solubility in IV Formulation [2, 8]: 20.5 µg/mL (≈ 35.2 µM)
Solubility in IV Formulation [2, 9]: 21.6 µg/mL (≈ 37.1 µM)
Solubility in IV Formulation ([2]; saline/PEG400/Tween80 (88:10:1), 8 Hr.): 22.0 µg/mL (≈ 37.8 µM)
Solubility in IV Formulation ([2]; saline/PEG400/Tween80 (88:10:1), 24 Hr.): 21.9 µg/mL (≈ 37.7 µM)
Solubility in IV Formulation ([2]; saline/PEG400/Tween80 (88:10:1), 48 Hr.): 21.9 µg/mL (≈ 37.7 µM)
Solubility in IV Formulation ([2]; saline/PEG400/Tween80 (88:10:1), 96 Hr.): 21.6 µg/mL (≈ 37.1 µM)
half-life ([3]; in vivo, po, 10 mg/kg, oral 10 mg/kg, suspension in 0.5% w/v Klucel GF and 0.5% w/v Poloxamer F-68): 3.9 h
MRT ([3]; in vivo, po, 10 mg/kg, oral 10 mg/kg, suspension in 0.5% w/v Klucel GF and 0.5% w/v Poloxamer F-68, read-out: MRT): 6 h
Tmax ([3]; in vivo, po, 10 mg/kg, oral 10 mg/kg, suspension in 0.5% w/v Klucel GF and 0.5% w/v Poloxamer F-68, read-out: Tmax): 1.5 h
AUC0-t [3, 10]: 983 ng·h/mL
AUCinf [3, 10]: 996 ng·h/mL
Cmax [3, 10]: 129 ng/mL
Structure (SMILES): Cc1ccc(NC(=O)[C@H]2CCCN(C(=O)c3c(C)cccc3F)[C@H]2c2ccc(NC3CCCC3)cc2)cc1C(F)(F)F [Crystalline Compound 1, (2R,3S)-2-(4-(cyclopentylamino)phenyl)-1-(2-fluoro-6-methylbenzoyl)-N-(4-methyl-3-(trifluoromethyl)phenyl)piperidine-3-carboxamide]

CCX168 Solubility at 37° C. ([1]; 0.1N HCl (pH 1.06), 0.5 Hr.): 47.5 µg/mL
CCX168 Solubility at 37° C. ([1]; 0.1N HCl (pH 1.06), 1 Hr.): 54.0 µg/mL
CCX168 Solubility at 37° C. ([1]; 0.1N HCl (pH 1.06), 2 Hr.): 74.7 µg/mL
CCX168 Solubility at 37° C. ([1]; 0.1N HCl (pH 1.06), 4 Hr.): 61.7 µg/mL
CCX168 Solubility at 37° C. ([1]; FaSSGF (pH 1.64), 0.5 Hr.): 9.3 µg/mL
CCX168 Solubility at 37° C. ([1]; FaSSGF (pH 1.64), 1 Hr.): 7.8 µg/mL
CCX168 Solubility at 37° C. ([1]; FaSSGF (pH 1.64), 2 Hr.): BQL (BQL = Less than 3.1 μg/mL)
CCX168 Solubility at 37° C. ([1]; FaSSGF (pH 1.64), 4 Hr.): ND (ND = Not Detected)
CCX168 Solubility at 37° C. ([1]; FeSSIF (pH 4.90), 0.5 Hr.): 6.0 µg/mL
CCX168 Solubility at 37° C. ([1]; FeSSIF (pH 4.90), 1 Hr.): 9.9 µg/mL
CCX168 Solubility at 37° C. ([1]; FeSSIF (pH 4.90), 2 Hr.): 9.0 µg/mL
CCX168 Solubility at 37° C. ([1]; FeSSIF (pH 4.90), 4 Hr.): 7.4 µg/mL
hygroscopicity ([4]; DVS, 25° C.): low hygroscopicity
hysteresis between adsorption and desorption (DVS plot) ([4]; DVS, 25° C.): no hysteresis
form change by XRPD before and after DVS test ([4]; XRPD, FIG. 7): no form change
weight gain after dynamic vapor sorption cycle ([4]; about 0% RH to about 65% RH at 25° C.): about 0.31%
Unspecified Individual Related Substances (HPLC) ([5]; RRT0.45, Time Zero): RRT0.45: <0.05%
Unspecified Individual Related Substances (HPLC) ([5]; RRT0.50, Time Zero): RRT0.50: <0.05%
Unspecified Individual Related Substances (HPLC) ([5]; RRT0.90, Time 12 months (25° C./60% RH)): RRT0.90: 0.20%
Unspecified Individual Related Substances (HPLC) ([5]; RRT0.90, Time Zero): RRT0.90: 0.05%
Unspecified Individual Related Substances (HPLC) ([5]; RRT0.96, Time 12 months (25° C./60% RH)): RRT0.96: <0.05%
Unspecified Individual Related Substances (HPLC) ([5]; RRT0.96, Time Zero): RRT0.96: <0.05%
Specified Individual Related Substances (HPLC) ([5]; Time 12 months (25° C./60% RH)): RRT1.05: <0.05%
Specified Individual Related Substances (HPLC) ([5]; Time Zero): RRT1.05: 0.08%
Unspecified Individual Related Substances (HPLC) ([5]; RRT1.06, Time 12 months (25° C./60% RH)): RRT1.06: 0.07%
Unspecified Individual Related Substances (HPLC) ([5]; RRT1.14, Time 12 months (25° C./60% RH)): RRT1.14: <0.05%
Unspecified Individual Related Substances (HPLC) ([5]; RRT1.14, Time Zero): RRT1.14: 0.05%
Unspecified Individual Related Substances (HPLC) ([5]; RRT1.16, Time Zero): RRT1.16: <0.05%
Unspecified Individual Related Substances (HPLC) ([5]; RRT1.20, Time Zero): RRT1.20: 0.22%
Unspecified Individual Related Substances (HPLC) ([5]; RRT1.21, Time Zero): RRT1.21: 0.06%
Unspecified Individual Related Substances (HPLC) ([5]; RRT1.22, Time Zero): RRT1.22: <0.05%
Appearance ([5]; Time 12 months (25° C./60% RH)): Off-white Powder
Potency (HPLC) ([5]; Time 12 months (25° C./60% RH)): 98.9% w/w
Total Impurities and Related Substances (HPLC) ([5]; Time 12 months (25° C./60% RH)): 0.20%
Water Content (KF) ([5]; Time 12 months (25° C./60% RH)): 0.31%
enantiomeric impurity ([5]; Time 12 months (25° C./60% RH)): 0.0%
Appearance ([5]; Time Zero): Off-white Powder
Potency (HPLC) ([5]; Time Zero): 99.5% w/w
Total Impurities and Related Substances (HPLC) ([5]; Time Zero): 0.38%
Water Content (KF) ([5]; Time Zero): 0.33%
enantiomeric impurity ([5]; Time Zero): 0.0%
aqueous solubility in an IV formulation compared to the crystalline form ([2]; particularly at early time points): improved the aqueous solubility
solubility at 8 h ([2]; saline/PEG400/Tween80 (88:10:1) IV formulation, aqueous with cosolvent or surfactant or cyclodextrin, thermodynamic from solid, saline/PEG400/Tween80 (88:10:1), 8 Hr.): 35.6 µg/mL (≈ 61.2 µM)
solubility at 24 h ([2]; saline/PEG400/Tween80 (88:10:1) IV formulation, aqueous with cosolvent or surfactant or cyclodextrin, thermodynamic from solid, saline/PEG400/Tween80 (88:10:1), 24 Hr.): 28.9 µg/mL (≈ 49.7 µM)
solubility at 48 h ([2]; saline/PEG400/Tween80 (88:10:1) IV formulation, aqueous with cosolvent or surfactant or cyclodextrin, thermodynamic from solid, saline/PEG400/Tween80 (88:10:1), 48 Hr.): 26.9 µg/mL (≈ 46.2 µM)
solubility at 96 h ([2]; saline/PEG400/Tween80 (88:10:1) IV formulation, aqueous with cosolvent or surfactant or cyclodextrin, thermodynamic from solid, saline/PEG400/Tween80 (88:10:1), 96 Hr.): 26.3 µg/mL (≈ 45.2 µM)
Solubility in IV Formulation [2, 6]: 140.0 µg/mL (≈ 241 µM)
Solubility in IV Formulation [2, 7]: 150.6 µg/mL (≈ 259 µM)
Solubility in IV Formulation [2, 8]: 96.1 µg/mL (≈ 165 µM)
Solubility in IV Formulation [2, 9]: 52.8 µg/mL (≈ 90.8 µM)
AUC(0-inf) ([3]; in vivo, oral 10 mg/kg, suspension in 0.5% w/v Klucel GF and 0.5% w/v Poloxamer F-68): 2470 ng·h/mL
AUC0-t ([3]; in vivo, oral 10 mg/kg, suspension in 0.5% w/v Klucel GF and 0.5% w/v Poloxamer F-68, read-out: AUC0-t): 2410 ng·h/mL
Cmax ([3]; in vivo, oral 10 mg/kg, suspension in 0.5% w/v Klucel GF and 0.5% w/v Poloxamer F-68, read-out: Cmax): 388 ng/mL
Cmax and AUC compared to the formulation containing crystalline form ([3]; oral 10 mg/kg suspension): significant increase in Cmax and AUC
MRT [3, 10]: 5.6 h
Tmax [3, 10]: 2 h
t1/2 [3, 10]: 4.7 h
Structure (SMILES): Cc1ccc(NC(=O)[C@H]2CCCN(C(=O)c3c(C)cccc3F)[C@H]2c2ccc(NC3CCCC3)cc2)cc1C(F)(F)F [Amorphous Compound 1, (2R,3S)-2-(4-(cyclopentylamino)phenyl)-1-(2-fluoro-6-methylbenzoyl)-N-(4-methyl-3-(trifluoromethyl)phenyl)piperidine-3-carboxamide]
